Data from ChEMBL document CHEMBL3885881, “DrugMatrix”.

Species on record: Rattus norvegicus
Assay: DrugMatrix - Regimen: Daily Repeat
Assay type: toxicity, organism-based, Sprague-Dawley
Parameters: regimen Daily Repeat, gender Male, age 6-8 weeks
Settings: in vivo, po, 0 mg/kg, route oral GAVAGE, dose level Control, […]; for ABSOLUTE BASOPHIL / ABSOLUTE EOSINOPHIL / ABSOLUTE LYMPHOCYTE / ABSOLUTE MONOCYTE / ABSOLUTE SEGMENTED NEUTROPHIL / BASOPHIL / EOSINOPHIL / ERYTHROCYTE COUNT / HEMATOCRIT / HEMOGLOBIN / LEUKOCYTE COUNT / LYMPHOCYTE / MEAN CORPUSCULAR HEMOGLOBIN / MEAN CORPUSCULAR HEMOGLOBIN CONCENTRATION / MEAN CORPUSCULAR VOLUME / MONOCYTE / NEUTROPHIL / NUCLEATED RED BLOOD CELLS / PLATELET COUNT: tissue Blood; for ALANINE AMINOTRANSFERASE / ALBUMIN / ALKALINE PHOSPHATASE / ASPARTATE AMINOTRANSFERASE / BLOOD UREA NITROGEN / CARBON DIOXIDE / CHLORIDE / CHOLESTEROL / CREATINE PHOSPHOKINASE / CREATININE / GLUCOSE / LACTATE DEHYDROGENASE / LIPASE / PHOSPHORUS / POTASSIUM / SODIUM / TOTAL BILIRUBIN / TOTAL PROTEIN / URIC ACID: tissue Plasma

## CC(=O)Oc1ccccc1C(=O)O [ASPIRIN]
72 h, time 3 day
  ABSOLUTE BASOPHIL: 0 CELLS/uL
  ABSOLUTE EOSINOPHIL: 0 CELLS/uL
  ABSOLUTE LYMPHOCYTE: 6275.67 CELLS/uL
  ABSOLUTE MONOCYTE: 40.67 CELLS/uL
  ABSOLUTE SEGMENTED NEUTROPHIL: 633.67 CELLS/uL
  BASOPHIL: 0%
  EOSINOPHIL: 0%
  ERYTHROCYTE COUNT: 5.2 x10E6/uL
  HEMATOCRIT: 32.78%
  HEMOGLOBIN: 12.98 G/DL
  LEUKOCYTE COUNT: 6.95 x10E3/uL
  LYMPHOCYTE: 90.17%
  MEAN CORPUSCULAR HEMOGLOBIN: 24.97 pg
  MEAN CORPUSCULAR HEMOGLOBIN CONCENTRATION: 39.62 G/DL
  MEAN CORPUSCULAR VOLUME: 63.03 fL
  MONOCYTE: 0.67%
  NEUTROPHIL: 9.17%
  NUCLEATED RED BLOOD CELLS: 0 /100WBC
  PLATELET COUNT: 1082.83 x10E3/uL
  ALANINE AMINOTRANSFERASE: 69.67 u/L
  ALBUMIN: 4.15 G/DL
  ALKALINE PHOSPHATASE: 430.5 u/L
  ASPARTATE AMINOTRANSFERASE: 90.83 u/L
  BLOOD UREA NITROGEN: 13 mg/dL
  CARBON DIOXIDE: 33 mmol/L
  CHLORIDE: 99.17 MEQ/L
  CHOLESTEROL: 70.5 mg/dL
  CREATINE PHOSPHOKINASE: 253.33 u/L
  CREATININE: 0.13 mg/dL
  GLUCOSE: 157.17 mg/dL
  LACTATE DEHYDROGENASE: 85 u/L
  LIPASE: 10 u/L
  PHOSPHORUS: 10.2 mg/dL
  POTASSIUM: 5.78 MEQ/L
  SODIUM: 144.12 MEQ/L
  TOTAL BILIRUBIN: 0.2 mg/dL
  TOTAL PROTEIN: 5.8 G/DL
  URIC ACID: 0.8 mg/dL
120 h, time 5 day
  ABSOLUTE BASOPHIL: 0 CELLS/uL
  ABSOLUTE EOSINOPHIL: 0 CELLS/uL
  ABSOLUTE LYMPHOCYTE: 10431 CELLS/uL
  ABSOLUTE MONOCYTE: 90.5 CELLS/uL
  ABSOLUTE SEGMENTED NEUTROPHIL: 1111.83 CELLS/uL
  BASOPHIL: 0%
  EOSINOPHIL: 0%
  ERYTHROCYTE COUNT: 5.51 x10E6/uL
  HEMATOCRIT: 34.67%
  HEMOGLOBIN: 13.5 G/DL
  LEUKOCYTE COUNT: 11.63 x10E3/uL
  LYMPHOCYTE: 89.67%
  MEAN CORPUSCULAR HEMOGLOBIN: 24.5 pg
  MEAN CORPUSCULAR HEMOGLOBIN CONCENTRATION: 38.95 G/DL
  MEAN CORPUSCULAR VOLUME: 62.87 fL
  MONOCYTE: 0.67%
  NEUTROPHIL: 9.67%
  NUCLEATED RED BLOOD CELLS: 0 /100WBC
  PLATELET COUNT: 1052.67 x10E3/uL
  ALANINE AMINOTRANSFERASE: 54.67 u/L
  ALBUMIN: 4.15 G/DL
  ALKALINE PHOSPHATASE: 359.83 u/L
  ASPARTATE AMINOTRANSFERASE: 83 u/L
  BLOOD UREA NITROGEN: 13.5 mg/dL
  CARBON DIOXIDE: 27.17 mmol/L
  CHLORIDE: 98.5 MEQ/L
  CHOLESTEROL: 66.83 mg/dL
  CREATINE PHOSPHOKINASE: 256.17 u/L
  CREATININE: 0.19 mg/dL
  GLUCOSE: 171.33 mg/dL
  LACTATE DEHYDROGENASE: 91.5 u/L
  LIPASE: 10.5 u/L
  PHOSPHORUS: 8.72 mg/dL
  POTASSIUM: 5.34 MEQ/L
  SODIUM: 142.53 MEQ/L
  TOTAL BILIRUBIN: 0.2 mg/dL
  TOTAL PROTEIN: 6.05 G/DL
  URIC ACID: 0.6 mg/dL
